What was measured:
Assay type in all cases: in vivo
[1] = system: C. elegans (Bristol strain); assay: Evaluation of test compounds against C. elegans (motility, 96-well plate); parameters: key: 9=complete kill in 4 hours; 8=complete kill in 24 hours; 7=markedly reduced motility in approximately 95% of worms in 24 hours; 0=normal motility, same as controls; settings: motility at 4 and 24 hours
Outline: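 Activity is a semi-quantitative visual score of adult and larval movement, read at 4 h and 24 h post-immersion at 20 °C after gentle tapping. Worms were suspended in Na buffer in wells where compound, dissolved in 80% acetone, had been evaporated.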

[2] = system: Spodoptera eridania, eggs-southern armyworm (SAW-Eggs); assay: Southern armyworm eggs (SAW-Eggs) treated diet test; parameters: key: 0 = no effect; 1 = 10-25% kill; 2 = 26-35% kill; 3 = 36-45% kill; 4 = 46-55% kill; 5 = 56-65% kill; 6 = 66-75% kill; 7 = 76-85% kill; 8 = 86-99% kill; 9 = 100% kill; settings: mortality after 7 days
Protocol: Test solutions are prepared by dissolving the test compound in a 35% acetone in water mixture to give a concentration of 10,000 ppm. Subsequent dilutions are made with water as needed. Spodoptera eridania, Eggs-southern Armyworm and Diabrotica undecimpunctata howardi, Eggs-southern Corn Rootworm (SAW-Eggs) and (SCR-Eggs) Wells containing artificial diet are treated with the test solutions and dried. The appropriate insect eggs are then placed in the wells. The wells are covered with vented, adhesive, clear plastic covers. After 7 days, mortality counts are made. [table]

[3] = system: Diabrotica undecimpunctata howardi, eggs-southern corn rootworm (SCR-Eggs); assay: Southern corn rootworm eggs (SCR-Eggs) treated diet test; parameters: key: 0 = no effect; 1 = 10-25% kill; 2 = 26-35% kill; 3 = 36-45% kill; 4 = 46-55% kill; 5 = 56-65% kill; 6 = 66-75% kill; 7 = 76-85% kill; 8 = 86-99% kill; 9 = 100% kill; settings: mortality after 7 days
Outline: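 Eggs of S. eridania or D. undecimpunctata howardi were set on artificial diet pretreated with test solution (10,000 ppm stock in 35% aqueous acetone, water dilutions) and dried. Wells were sealed with vented clear covers, and mortality was scored at day 7.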

[4] = system: Spodoptera eridania, 2nd instar larvae, southern armyworm (SAW); assay: Southern armyworm (SAW) leaf dip test; parameters: key: 0 = no effect; 1 = 10-25% kill; 2 = 26-35% kill; 3 = 36-45% kill; 4 = 46-55% kill; 5 = 56-65% kill; 6 = 66-75% kill; 7 = 76-85% kill; 8 = 86-99% kill; 9 = 100% kill
Outline: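 Ten 2nd instar caterpillars feed on a Sieva lima bean leaf that was dipped 3 seconds in test solution (stock 10,000 ppm in 35% acetone/water, water-diluted). Five days later, larvae are assessed for death, feeding reduction or abnormal molting.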

[5] = system: Diabrotica virgifera virgifera Leconte, 2nd instar western corn rootworm (WCR); assay: Western corn rootworm (WCR) soil test; parameters: key: 0 = no effect; 1 = 10-25% kill; 2 = 26-35% kill; 3 = 36-45% kill; 4 = 46-55% kill; 5 = 56-65% kill; 6 = 66-75% kill; 7 = 76-85% kill; 8 = 86-99% kill; 9 = 100% kill
Outline: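 Ten 2nd-instar rootworm larvae are placed in jars of moist soil with millet seed and talc treated with 1.25 mg active ingredient (roughly 50 kg/ha) from a 35% acetone-in-water solution. After 5 days mortality is scored, counting missing larvae as dead.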

[6] = system: Tetranychus urticae (OP-resistant strain), 2-spotted spider mite (TSM); assay: 2-spotted spider mite (TSM) plant dip test; parameters: key: 0 = no effect; 1 = 10-25% kill; 2 = 26-35% kill; 3 = 36-45% kill; 4 = 46-55% kill; 5 = 56-65% kill; 6 = 66-75% kill; 7 = 76-85% kill; 8 = 86-99% kill; 9 = 100% kill; settings: mortality after 2 days
Outline: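 Mortality counted 2 days after a 3 s agitated dip of infested Sieva lima bean plants. Compound came from a 10,000 ppm stock in 35% aqueous acetone, with further dilution in water. Each primary leaf carried about 100 OP-resistant mites, allowed to settle ~2 h before dipping.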

[7] = system: Aphis gossypii, cotton aphid (CA); assay: Cotton aphid (CA) cotyledon dip test; parameters: key: 0 = no effect; 1 = 10-25% kill; 2 = 26-35% kill; 3 = 36-45% kill; 4 = 46-55% kill; 5 = 56-65% kill; 6 = 66-75% kill; 7 = 76-85% kill; 8 = 86-99% kill; 9 = 100% kill; settings: mortality after 5 days
Outline: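 Mortality was scored 5 days after dipping aphid-infested cotyledons, colonised overnight from a transfer leaf, into water dilutions of a 35% acetone/water compound solution.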

[8] = system: M. incognita (Root Knot Nematode) larvae; assay: Evaluation of test compounds against M. incognita larvae in microtiter plate wells (movement score); settings: larvae scored for movement after 20-24 hours; further: key: A score of '9' indicates inactive worms with a straight, sticklike morphology; A score of '8' indicates inactive worms with a limp, curled or curved morphology; A score of '7' indicates dead/paralyzed worms after 72 hours
Outline: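 Scoring is by larval movement: dead or paralyzed worms count as positive, and a "7" means dead/paralyzed at 72 hours. Freshly hatched root-knot larvae (50-65 per well) in buffered S Medium were incubated with compounds under plate sealers for 20-24 h before the first read.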

Row | SMILES | Rating Against C. elegans (150 ppm) [1] | SAW Eggs (300 ppm) rating [2] | SCR Eggs (1000 ppm) rating [3] | SAW (300 ppm) rating [4] | WCR (50 ppm) rating [5] | TSM (300 ppm) rating [6] | CA (300 ppm) rating [7] | M. incognita (150 ppm) score [8]
1 | C=CCSC(C[N+](=O)[O-])c1cc(OC)cc(OC)c1 (centres unmarked) [Example 3] | 0 | 0 | 0 |  |  |  |  | 
2 | O=C(O)CSC(C[N+](=O)[O-])c1c(F)c(F)c(F)c(F)c1F (centres unmarked) [Example 139] | 9 | 0 | 0 | 0 | 9 (9 = 100% kill) | 0 | 0 | 
3 | COC(=O)CSC(C[N+](=O)[O-])c1c(F)c(F)c(F)c(F)c1F (centres unmarked) [Example 140] | 8 | 0 | 0 | 6 (6 = 66-75% kill) | 9 (9 = 100% kill) | 0 | 0 | 
4 | COC(=O)CSc1c(F)c(F)c(C(C[N+](=O)[O-])SCC(=O)OC)c(F)c1F (centres unmarked) [Example 141] | 8 | 0 | 0 | 0 | 0 | 0 | 0 | 
5 | CCOC(=O)CSC(C[N+](=O)[O-])c1c(F)c(F)c(F)c(F)c1F (centres unmarked) [Example 142] | 8 | 0 | 0 | 0 | 9 (9 = 100% kill) | 0 | 4 (4 = 46-55% kill) | 
6 | CCOC(=O)CSc1c(F)c(F)c(C(C[N+](=O)[O-])SCC(=O)OCC)c(F)c1F (centres unmarked) [Example 143] | 0 | 0 | 0 | 0 | 0 | 0 | 0 | 
7 | CCCOC(=O)CSC(C[N+](=O)[O-])c1c(F)c(F)c(F)c(F)c1F (centres unmarked) [Example 144] | 7 | 0 | 0 | 0 | 9 (9 = 100% kill) | 0 | 0 | 
8 | CCCOC(=O)CSc1c(F)c(F)c(C(C[N+](=O)[O-])SCC(=O)OCCC)c(F)c1F (centres unmarked) [Example 145] | 0 | 0 | 0 | 0 | 0 | 0 | 0 | 
9 | CCCCOC(=O)CSC(C[N+](=O)[O-])c1c(F)c(F)c(F)c(F)c1F (centres unmarked) [Example 146] | 7 | 0 | 0 | 0 | 8 (8 = 86-99% kill) | 0 | 0 | 
10 | CCCCOC(=O)CSc1c(F)c(F)c(C(C[N+](=O)[O-])SCC(=O)OCCCC)c(F)c1F (centres unmarked) [Example 147] | 0 | 0 | 0 | 0 | 0 | 0 | 0 | 
11 | O=[N+]([O-])CC(SCc1ccccc1)c1c(F)c(F)c(F)c(F)c1F (centres unmarked) [Example 148] | 0 | 0 | 0 | 0 | 0 | 0 | 0 | 
12 | O=[N+]([O-])CC(SCc1ccccc1)c1c(F)c(F)c(SCc2ccccc2)c(F)c1F (centres unmarked) [Example 149] | 0 | 0 | 0 | 0 | 0 | 0 | 0 | 
13 | COc1cccc(C(C[N+](=O)[O-])SCc2ccco2)c1 (centres unmarked) [Example 158] | 9 | 0 | 0 | 0 | 0 | 0 | 0 | 
14 | CCCOC(=O)CSC(C[N+](=O)[O-])c1cccs1 (centres unmarked) [Example 189] |  | 0 | 0 | 0 | 0 | 0 | 0 | 9
15 | O=C(O)CSC(C[N+](=O)[O-])c1ccco1 (centres unmarked) [Example 196] |  | 0 | 0 | 0 | 9 (9 = 100% kill) | 0 | 0 | 9
16 | COC(=O)CSC(C[N+](=O)[O-])c1ccco1 (centres unmarked) [Example 197] |  | 9 (9 = 100% kill) | 0 | 0 | 0 | 0 | 5 (5 = 56-65% kill) | 9
17 | CCOC(=O)CSC(C[N+](=O)[O-])c1ccco1 (centres unmarked) [Example 198] |  | 9 (9 = 100% kill) | 0 | 0 | 7 (7 = 76-85% kill) | 0 | 0 | 9
18 | CCCOC(=O)CSC(C[N+](=O)[O-])c1ccco1 (centres unmarked) [Example 199] |  | 9 (9 = 100% kill) | 0 | 0 | 8 (8 = 86-99% kill) | 0 | 0 | 9
19 | CCCCOC(=O)CSC(C[N+](=O)[O-])c1ccco1 (centres unmarked) [Example 200] |  | 9 (9 = 100% kill) | 0 | 0 | 4 (4 = 46-55% kill) | 0 | 0 | 9
20 | CCCSC(C[N+](=O)[O-])c1ccco1 (centres unmarked) [Example 201] |  | 0 | 0 | 0 | 7 (7 = 76-85% kill) | 0 | 0 | 0
21 | C=CCSC(C[N+](=O)[O-])c1ccco1 (centres unmarked) [Example 202] |  | 9 (9 = 100% kill) | 0 | 0 | 9 (9 = 100% kill) | 0 | 0 | 0

— US6358883B1, “Pesticidal and parasiticidal use of 1-aryl-1-(substituted thio, sulfinyl and sulfonyl)-2-nitroethane compounds” (American Cyanamid Company, priority 1998, dated 2002)
